Laboratory results reported in patent publication US6703421B1, “Methods of using phenylmethylbenzoquinone and hydroquinone compounds for treatment of myocarditis, dilated cardiomyopathy and heart failure” (Daiichi Suntory Pharma Co., Ltd., priority 1999, dated 2004).

The compounds below were run on EMC virus-inoculated DBA/2 mice (viral myocarditis) (assay: Survival rate in murine viral myocarditis model). Conditions: 30 mg/kg intraperitoneally daily for 14 days, 0.5% gum arabic; FIG. 2.
Assay type: in vivo, mouse
Procedure: Viral myocarditis mice were prepared using the procedure described below in accordance with a known method (Shioi T. et al. (1997) J. Mol. Cell. Cardiol., 29, 2327-2334). Variant M (acquired from the American Type Culture Collection) was used for the EMC virus for inoculation and prepared to 100 pfu/ml in Eagle's MEM medium (Nissui Pharmaceutical). Four-week-old DBA/2 male mice were divided into two groups, and intraperitoneally inoculated with EMC virus at 10 pfu/animal. Test compound was then administered intraperitoneally and daily for 14 days under the following conditions to each group starting 3 hours after inoculation.
The test compound was used after dissolving in 0.5% aqueous gum arabic solution (3 mg/ml). In the present example, the compound of Production Example 4 was used in the test as the NF-κB inhibitor.
Test group (n=10): Administration of NF-κB inhibitor (Production Example 4) at 30 mg/kg body weight Control group (n=10): 0.5% aqueous gum arabic solution
The experiment was conducted in the following three groups using the same method as Example 2 and the compound of Production Example 7 for the NF-κB inhibitor. The test compound was used after dissolving in 10% aqueous dimethylsulfoxide solution (DMSO) (test group 1: 0.3 mg/ml, test group 2: 3 mg/ml). The survival rates were tested for the presence of a significant difference according to the Kaplan-Meier method, and statistical significance was defined as p<0.05.
Test group 1 (n=21): Administration of NF-κB inhibitor (Production Example 7) at 3 mg/kg body weight
Test group 2 (n=21): Administration of NF-κB inhibitor (Production Example 7) at 30 mg/kg body weight
Four-week-old DBA/2 male mice were inoculated with EMC virus using the same method as Example 2, and the test compound was administered orally and daily for 14 days under the following conditions to each group starting 2 hours after inoculation.
The test compound was used after dissolving in 10% aqueous sulfobutylcyclodextrin solution (3 mg/ml). In the present example, the compound of Production Example 44 was used in the test as the NF-κB inhibitor.
Test group (n=20): Administration of NF-κB inhibitor (Production Example 44) at 30 mg/kg body weight

With COC1=C(OC)C(=O)C(Cc2ccc(CCC(=O)N3CCSCC3)cc2)=C(C)C1=O [Prod. Ex. 4, N-[3-[4-(5,6-Dimethoxy-3-methyl-1,4-benzoquinon-2-ylmethyl)phenyl]propionyl]thimorpholine] the survival rate was “improves the survival rate”.

Same assay, conditions: 30 mg/kg orally daily for 14 days, 10% sulfobutylcyclodextrin; FIG. 4

COC1=C(OC)C(=O)C(Cc2cccc(C(=O)N3CCOCC3)c2)=C(C)C1=O [Prod. Ex. 44, N-[3-(5,6-Dimothoxy-3-methyl-1,4-benzoquinon-2-ylmethyl)benzoyl]morpholine] was tested, and the survival rate was “improves survival rate”.

Each compound was assayed on NF-κB (assay: NF-κB luciferase reporter assay in A549/NF-κBLuc cells). Conditions: A549/NF-κBLuc stimulated with IL-1β (1 ng/ml) or TNF-α (500 ng/ml) for 4 hours; dose-dependent; FIG. 1.
Assay type: cell-based, human
Procedure: Using lipofectamine (Lifetech Oriental K. K., Tokyo) according to the conventional method, human lung cancer cell line A549 cells (ATCC catalog no. CCL185), which are known to express hiNOS by cytokine stimulation, were co-transfected with pNFκB-Luc, which are plasmid controlled by a NF-κB binding consensus sequence, and pSV2neo (Clontech, U.S.A.), and then A549/NF-κBLuc, the cell that has stably introduced pNFκB-Luc, was selected by adding G418 sulfate (1 mg/ml, Lifetech Oriental K. K.) to the culture medium.
The luciferase activity was measured using the Luciferase Assay System (Promega, U.S.A.).

COC1=C(OC)C(=O)C(Cc2ccc(CCC(=O)N3CCSCC3)cc2)=C(C)C1=O [Prod. Ex. 4, N-[3-[4-(5,6-Dimethoxy-3-methyl-1,4-benzoquinon-2-ylmethyl)phenyl]propionyl]thimorpholine] was tested, and the “luciferase activity regulated by activation of NF-κB” value was “suppresses luciferase activity”.

Same assay, conditions: Homo sapiens; A549/NF-κBLuc, IL-1β (1 ng/ml) for 4 hours, luciferase activity; read-out: IC50 (μM) IL-1 stimulation

Going from COC1=C(OC)C(=O)C(Cc2ccc(CCC(=O)N3CCSCC3)cc2)=C(C)C1=O [Prod. Ex. 4, N-[3-[4-(5,6-Dimethoxy-3-methyl-1,4-benzoquinon-2-ylmethyl)phenyl]propionyl]thimorpholine] to COC1=C(OC)C(=O)C(Cc2ccc(CCC(=O)N3CCC(C)CC3)cc2)=C(C)C1=O [Prod. Ex. 81], the IC50 falls from 10 µM to 5 µM (2-fold). The second is the more potent here.

First: COC1=C(OC)C(=O)C(Cc2cccc(C(=O)N3CCOCC3)c2)=C(C)C1=O [Prod. Ex. 44, N-[3-(5,6-Dimothoxy-3-methyl-1,4-benzoquinon-2-ylmethyl)benzoyl]morpholine]
Second: COC1=C(OC)C(=O)C(Cc2ccc(CCC(=O)N3CCCC(C)C3)cc2)=C(C)C1=O (stereo not shown) [Prod. Ex. 85]
The IC50 of the first is 7.8-fold higher: 39 µM for the first, 5 µM for the second.

Compared with COC1=C(OC)C(=O)C(Cc2ccccc2CCC(=O)NC(C)C)=C(C)C1=O [Prod. Ex. 73, N-[3-[2-(5,6-Dimethoxy-3-methyl-1,4-benzoquinon-2-ylmethyl)phenyl]propionyl]isopropylamine], COC1=C(OC)C(=O)C(Cc2ccc(CCC(=O)NC(C)CC(C)C)cc2)=C(C)C1=O (stereo not shown) [Prod. Ex. 128] is 1.8-fold lower in IC50: 34 µM for the first, 19 µM for the second. The second is the more potent here.

Going from COC[C@H]1CCCN1C(=O)CCc1ccc(CC2=C(C)C(=O)C(OC)=C(OC)C2=O)cc1 [Prod. Ex. 76] to COC1=C(OC)C(=O)C(Cc2ccc(CCC(=O)N3CCCCC3C)cc2)=C(C)C1=O (stereo not shown) [Prod. Ex. 83], the IC50 falls from 14 µM to 1 µM (14-fold).

Going from COC1=C(OC)C(=O)C(Cc2ccc(CCC(=O)N3CCC(C(N)=O)CC3)cc2)=C(C)C1=O [Prod. Ex. 79] to COC1=C(OC)C(=O)C(Cc2ccc(CCC(=O)N3CCC[C@H]3C(N)=O)cc2)=C(C)C1=O [Prod. Ex. 106], the IC50 falls from 13 µM to 7 µM (1.9-fold). The second is the more potent here.

First: COC1=C(OC)C(=O)C(Cc2ccc(CCC(=O)Nc3ccc(OC)cc3)cc2)=C(C)C1=O [Prod. Ex. 94]
Second: COC1=C(OC)C(=O)C(Cc2ccc(CCC(=O)Nc3ccc(O)cc3)cc2)=C(C)C1=O [Prod. Ex. 189]
The IC50 of the first is 28-fold lower: 1 µM for the first, 28 µM for the second. The first is the more potent here.

Going from COC1=C(OC)C(=O)C(Cc2ccc(CCC(=O)Nc3ccccc3O)cc2)=C(C)C1=O [Prod. Ex. 96] to COC1=C(OC)C(=O)C(Cc2ccc(CCC(=O)N[C@@H](C)c3ccccc3)cc2)=C(C)C1=O [Prod. Ex. 120], the IC50 falls from 17 µM to 2 µM (8.5-fold).

COC1=C(OC)C(=O)C(Cc2ccc(CCC(=O)Nc3ccc(OC)c(OC)c3)cc2)=C(C)C1=O [Prod. Ex. 103] and COC1=C(OC)C(=O)C(Cc2ccc(CCC(=O)Nc3ccc(CC#N)cc3)cc2)=C(C)C1=O [Prod. Ex. 111] are within 1.5-fold of each other in IC50: 10 µM for the first, 14 µM for the second.

Compared with COC1=C(OC)C(=O)C(Cc2ccc(CCC(=O)NC(C)CO)cc2)=C(C)C1=O (stereo not shown) [Prod. Ex. 104], COC1=C(OC)C(=O)C(Cc2ccc(CCC(=O)NCCC(C)C)cc2)=C(C)C1=O [Prod. Ex. 173] is 3-fold higher in IC50: 12 µM for the first, 36 µM for the second.

First: CCOC(=O)C1CCCCN1C(=O)CCc1ccc(CC2=C(C)C(=O)C(OC)=C(OC)C2=O)cc1 (stereo not shown) [Prod. Ex. 105]
Second: CCOC(=O)N1CCN(C(=O)CCc2ccc(CC3=C(C)C(=O)C(OC)=C(OC)C3=O)cc2)CC1 [Prod. Ex. 147]
The IC50 of the first is 2.9-fold lower: 16 µM for the first, 47 µM for the second.

First: CCCCCc1ccc(NC(=O)CCc2ccc(CC3=C(C)C(=O)C(OC)=C(OC)C3=O)cc2)cc1 [Prod. Ex. 113]
Second: COC1=C(OC)C(=O)C(Cc2ccc(CCC(=O)N[C@H](C)c3ccccc3)cc2)=C(C)C1=O [Prod. Ex. 121]
The IC50 of the first is 2.3-fold higher: 16 µM for the first, 7 µM for the second. The second is the more potent here.

COC1=C(OC)C(=O)C(Cc2ccc(CCC(=O)NC3CCCCCC3)cc2)=C(C)C1=O [Prod. Ex. 136] and COC1=C(OC)C(=O)C(Cc2ccc(CCC(=O)NC3CCCCC3)cc2)=C(C)C1=O [Prod. Ex. 175] are within 1.5-fold of each other in IC50: 18 µM for the first, 19 µM for the second.

First: COC1=C(OC)C(=O)C(Cc2ccc(CCC(=O)N3CC(C)CC(C)C3)cc2)=C(C)C1=O (stereo not shown) [Prod. Ex. 137]
Second: COC1=C(OC)C(=O)C(Cc2ccc(CCC(=O)N3CCc4ccccc4C3)cc2)=C(C)C1=O [Prod. Ex. 169]
The IC50 of the first is 6.1-fold lower: 7 µM for the first, 43 µM for the second.

COC1=C(OC)C(=O)C(Cc2ccc(CCC(=O)N3CCN(c4ccccc4)CC3)cc2)=C(C)C1=O [Prod. Ex. 148] and COC1=C(OC)C(=O)C(Cc2ccc(CCC(=O)N3CCN(c4ccccc4OC)CC3)cc2)=C(C)C1=O [Prod. Ex. 163] are within 1.5-fold of each other in IC50: 25 µM for the first, 19 µM for the second.

First: COC1=C(OC)C(=O)C(Cc2ccc(CCC(=O)N3CCC(O)(c4ccccc4)CC3)cc2)=C(C)C1=O [Prod. Ex. 151]
Second: COC1=C(OC)C(=O)C(Cc2ccc(CCC(=O)N3CCC(C(C)=O)(c4ccccc4)CC3)cc2)=C(C)C1=O [Prod. Ex. 168]
The IC50 of the first is 2.2-fold higher: 20 µM for the first, 9 µM for the second.

Compared with COC1=C(OC)C(=O)C(Cc2ccc(CCC(=O)N3CCC(O)(c4ccc(Cl)cc4)CC3)cc2)=C(C)C1=O [Prod. Ex. 154], COC1=C(OC)C(=O)C(Cc2ccc(CCC(=O)N3CCc4cc(OC)c(OC)cc4C3)cc2)=C(C)C1=O [Prod. Ex. 167] is 1.9-fold lower in IC50: 28 µM for the first, 15 µM for the second.

First: Cc1csc2ncnc(NC3Cc4ccccc4C3)c12 [Prod. Ex. 190, 4-(2-Indanylamino)-5-methylthieno[2,3-d]pyrimidine]
Second: CC(C)c1csc2ncnc(NC3Cc4ccccc4C3)c12 [Prod. Ex. 211, 4-(2-Indanylamino)-5-isopropylthieno[2,3-d]pyrimidine]
The IC50 of the first is 11-fold higher: 0.71 µM for the first, 0.064 µM for the second. The second is the more potent here.

Going from Cc1csc2ncnc(NC3Cc4ccc(Oc5ccccc5)cc4C3)c12 (stereo not shown) [Prod. Ex. 214, 4-(5-Phenoxyindan-2-yl)amino-5-methylthieno[2,3-d]pyrimidine] to Cc1csc2ncnc(NC3Cc4ccc(C(=O)NCc5ccccc5)cc4C3)c12 (stereo not shown) [Prod. Ex. 220, N-Benzyl-2-(5-methylthieno[2,3-d]pyrimidine-4-yl)amino-5-indan Carboxamide], the IC50 falls from 0.15 µM to 0.072 µM (2.1-fold). The second is the more potent here.

Same assay, conditions: Homo sapiens; A549/NF-κBLuc, TNF-α (500 ng/ml) for 4 hours, luciferase activity; read-out: IC50 (μM) TNF stimulation

Going from COC1=C(OC)C(=O)C(Cc2ccc(CCC(=O)N3CCSCC3)cc2)=C(C)C1=O [Prod. Ex. 4, N-[3-[4-(5,6-Dimethoxy-3-methyl-1,4-benzoquinon-2-ylmethyl)phenyl]propionyl]thimorpholine] to Cc1csc2ncnc(NC3Cc4ccc(C(=O)NCc5ccccc5)cc4C3)c12 (stereo not shown) [Prod. Ex. 220, N-Benzyl-2-(5-methylthieno[2,3-d]pyrimidine-4-yl)amino-5-indan Carboxamide], the IC50 falls from 10 µM to 0.12 µM (83-fold). The second is the more potent here.

First: Cc1csc2ncnc(NC3Cc4ccccc4C3)c12 [Prod. Ex. 190, 4-(2-Indanylamino)-5-methylthieno[2,3-d]pyrimidine]
Second: CC(C)c1csc2ncnc(NC3Cc4ccccc4C3)c12 [Prod. Ex. 211, 4-(2-Indanylamino)-5-isopropylthieno[2,3-d]pyrimidine]
The IC50 of the first is 8.5-fold higher: 1.1 µM for the first, 0.13 µM for the second. The second is the more potent here.
